These compounds were tested against Beta-3 Adrenergic Receptor (Homo sapiens (Human), UniProt P13945) (assay: HTRF cAMP antagonist assay (IC50 determination)). Details: CHO-K1 cells stably expressing recombinant receptor; antagonism of isoproterenol at EC90; cAMP readout.
Assay type: cell-based
Experimental: HTRF cAMP assays were performed according to manufacturer's instructions (Cisbio, cAMP Dynamic 2 Assay Kit; #62AM4PEJ). CHO-K1 cells stably expressing recombinant receptor were harvested and suspended in warm PBS to make a 300,000 cells/mL stock. This cell suspension was dispensed into 384 well assay plates (PerkinElmer ProxiPlate #6008280) at 5 μL per well (1500 cells/well) along with a cAMP standard curve.
Compounds were dissolved and serially diluted (5-fold) in DMSO to generate a 10-point dose response stock. The stock was then diluted 100-fold in assay buffer (PBS containing 1 mM IBMX) before a volume of 2.5 μL was added to the cells (the final, top concentration of compound in the dose-response is typically 10 or 100 μM). After a brief incubation, 2.5 μL of isoproterenol stock, prepared at a concentration 4 times its EC90 at the receptor of interest, was added to the wells. The EC90 for isoproterenol, a beta-adrenergic agonist, was determined in separate experiments using standard methods to measure agonist potencies.
Following a 1-hour incubation at room temperature, 5 μL of cAMP-D2 Reagent diluted in Lysis Buffer was added to each well followed by 5 μL of Cryptate Reagent. Plates were further incubated at room temperature for 1 hour prior to reading. Time resolved fluorescence measurements were collected on a suitable, HTRF-capable plate reader.
Counts from the plate reader were fit to the cAMP standard curve on the assay plate in order to determine cAMP concentrations in each well, and these values were used to construct dose-response curves to obtain IC50 values.

Beta-3 Adrenergic Receptor, sequence (P13945 whole entry, species assumed): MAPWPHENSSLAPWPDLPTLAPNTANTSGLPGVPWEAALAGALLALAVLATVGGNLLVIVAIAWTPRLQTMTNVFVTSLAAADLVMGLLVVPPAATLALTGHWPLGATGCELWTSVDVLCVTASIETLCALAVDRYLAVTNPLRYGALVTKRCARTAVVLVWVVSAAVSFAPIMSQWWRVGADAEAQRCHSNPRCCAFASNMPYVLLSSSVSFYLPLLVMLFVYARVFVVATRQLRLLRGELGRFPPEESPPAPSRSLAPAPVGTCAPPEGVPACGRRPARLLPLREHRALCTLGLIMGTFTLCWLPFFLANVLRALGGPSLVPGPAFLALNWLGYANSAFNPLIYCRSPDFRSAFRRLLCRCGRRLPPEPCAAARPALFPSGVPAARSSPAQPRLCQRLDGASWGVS

Row | SMILES | IC50
1 | CS(=O)(=O)c1cccc(OC[C@@H](O)CNC2COC3(CCN(S(=O)(=O)c4ccc5ccccc5c4)CC3)C2)c1 (stereo partly drawn) [Compound 1, (2S)-1-(3-(methylsulfonyl)phenoxy)-3-(8-(naphthalen-2-ylsulfonyl)-1-oxa-8-azaspiro[4.5]decan-3-ylamino)propan-2-ol] | 4.42 nM
2 | CS(=O)(=O)c1cccc(OC[C@H](O)CNC2COC3(CCN(S(=O)(=O)c4ccc5ccccc5c4)CC3)C2)c1 (stereo partly drawn) [Compound 2, (2R)-1-(3-(methylsulfonyl)phenoxy)-3-(8-(naphthalen-2-ylsulfonyl)-1-oxa-8-azaspiro[4.5]decan-3-ylamino)propan-2-ol] | 44.8 nM
3 | CS(=O)(=O)c1cccc(OC[C@@H](O)CN[C@H]2COC3(CCN(S(=O)(=O)c4ccc5ccccc5c4)CC3)C2)c1 [Compound 3, (S)-1-(3-(methylsulfonyl)phenoxy)-3-((R)-8-(naphthalen-2-ylsulfonyl)-1-oxa-8-azaspiro[4.5]decan-3-ylamino)propan-2-ol] | 5.47 nM
4 | CS(=O)(=O)c1cccc(OC[C@@H](O)CN[C@@H]2COC3(CCN(S(=O)(=O)c4ccc5ccccc5c4)CC3)C2)c1 [Compound 4, (S)-1-(3-(methylsulfonyl)phenoxy)-3-((S)-8-(naphthalen-2-ylsulfonyl)-1-oxa-8-azaspiro[4.5]decan-3-ylamino)propan-2-ol] | 4.45 nM
5 | O=S(=O)(CCO)c1cccc(OC[C@@H](O)CNC2COC3(CCN(S(=O)(=O)c4ccc5ccccc5c4)CC3)C2)c1 (stereo partly drawn) [Compound 5, (2S)-1-(3-(2-hydroxyethylsulfonyl)phenoxy)-3-(8-(naphthalen-2-ylsulfonyl)-1-oxa-8-azaspiro[4.5]decan-3-ylamino)propan-2-ol] | 33.3 nM
6 | CCCS(=O)(=O)c1cccc(OC[C@@H](O)CNC2COC3(CCN(S(=O)(=O)c4ccc5ccccc5c4)CC3)C2)c1 (stereo partly drawn) [Compound 6, (2S)-1-(8-(naphthalen-2-ylsulfonyl)-1-oxa-8-azaspiro[4.5]decan-3-ylamino)-3-(3-(propylsulfonyl)phenoxy)propan-2-ol] | 16.5 nM
7 | O=S(=O)(CC1CC1)c1cccc(OC[C@@H](O)CNC2COC3(CCN(S(=O)(=O)c4ccc5ccccc5c4)CC3)C2)c1 (stereo partly drawn) [Compound 7, (2S)-1-(3-(cyclopropylmethylsulfonyl)phenoxy)-3-(8-(naphthalen-2-ylsulfonyl)-1-oxa-8-azaspiro[4.5]decan-3-ylamino)propan-2-ol] | 34.2 nM
8 | CC(C)S(=O)(=O)c1cccc(OC[C@@H](O)CNC2COC3(CCN(S(=O)(=O)c4ccc5ccccc5c4)CC3)C2)c1 (stereo partly drawn) [Compound 8, (2S)-1-(3-(isopropylsulfonyl)phenoxy)-3-(8-(naphthalen-2-ylsulfonyl)-1-oxa-8-azaspiro[4.5]decan-3-ylamino)propan-2-ol] | 12.1 nM
9 | O=S(=O)(CCC(F)(F)F)c1cccc(OC[C@@H](O)CNC2COC3(CCN(S(=O)(=O)c4ccc5ccccc5c4)CC3)C2)c1 (stereo partly drawn) [Compound 9, (2S)-1-(8-(naphthalen-2-ylsulfonyl)-1-oxa-8-azaspiro[4.5]decan-3-ylamino)-3-(3-(3,3,3-trifluoropropylsulfonyl)phenoxy)propan-2-ol] | 24.2 nM
10 | CC(C)CS(=O)(=O)c1cccc(OC[C@@H](O)CNC2COC3(CCN(S(=O)(=O)c4ccc5ccccc5c4)CC3)C2)c1 (stereo partly drawn) [Compound 10, (2S)-1-(3-(isobutylsulfonyl)phenoxy)-3-(8-(naphthalen-2-ylsulfonyl)-1-oxa-8-azaspiro[4.5]decan-3-ylamino)propan-2-ol] | 25.1 nM
11 | CC(C)CCS(=O)(=O)c1cccc(OC[C@@H](O)CNC2COC3(CCN(S(=O)(=O)c4ccc5ccccc5c4)CC3)C2)c1 (stereo partly drawn) [Compound 11, (2S)-1-(3-(isopentylsulfonyl)phenoxy)-3-(8-(naphthalen-2-ylsulfonyl)-1-oxa-8-azaspiro[4.5]decan-3-ylamino)propan-2-ol] | 35.5 nM
12 | N#CCS(=O)(=O)c1cccc(OC[C@@H](O)CNC2COC3(CCN(S(=O)(=O)c4ccc5ccccc5c4)CC3)C2)c1 (stereo partly drawn) [Compound 12, 2-(3-((2S)-2-hydroxy-3-(8-(naphthalen-2-ylsulfonyl)-1-oxa-8-azaspiro[4.5]decan-3-ylamino)propoxy)phenylsulfonyl)acetonitrile] | 130 nM
13 | O=S(=O)(CC1CCC1)c1cccc(OC[C@@H](O)CNC2COC3(CCN(S(=O)(=O)c4ccc5ccccc5c4)CC3)C2)c1 (stereo partly drawn) [Compound 13, (2S)-1-(3-(cyclobutylmethylsulfonyl)phenoxy)-3-(8-(naphthalen-2-ylsulfonyl)-1-oxa-8-azaspiro[4.5]decan-3-ylamino)propan-2-ol] | 97.8 nM
14 | O=S(=O)(CCCC(F)(F)F)c1cccc(OC[C@@H](O)CNC2COC3(CCN(S(=O)(=O)c4ccc5ccccc5c4)CC3)C2)c1 (stereo partly drawn) [Compound 14, (2S)-1-(8-(naphthalen-2-ylsulfonyl)-1-oxa-8-azaspiro[4.5]decan-3-ylamino)-3-(3-(4,4,4-trifluorobutylsulfonyl)phenoxy)propan-2-ol] | 56.7 nM
15 | CCS(=O)(=O)c1cccc(OC[C@@H](O)CNC2COC3(CCN(S(=O)(=O)c4ccc5ccccc5c4)CC3)C2)c1 (stereo partly drawn) [Compound 15, (2S)-1-(3-(ethylsulfonyl)phenoxy)-3-(8-(naphthalen-2-ylsulfonyl)-1-oxa-8-azaspiro[4.5]decan-3-ylamino)propan-2-ol] | 5.7 nM
16 | O=S(=O)(CC1CCCCC1)c1cccc(OC[C@@H](O)CNC2COC3(CCN(S(=O)(=O)c4ccc5ccccc5c4)CC3)C2)c1 (stereo partly drawn) [Compound 16, (2S)-1-(3-(cyclohexylmethylsulfonyl)phenoxy)-3-(8-(naphthalen-2-ylsulfonyl)-1-oxa-8-azaspiro[4.5]decan-3-ylamino)propan-2-ol] | 133 nM
17 | O=S(=O)(CC1CC1(F)F)c1cccc(OC[C@@H](O)CNC2COC3(CCN(S(=O)(=O)c4ccc5ccccc5c4)CC3)C2)c1 (stereo partly drawn) [Compound 17, (2S)-1-(3-((2,2-difluorocyclopropyl)methylsulfonyl)phenoxy)-3-(8-(naphthalen-2-ylsulfonyl)-1-oxa-8-azaspiro[4.5]decan-3-ylamino)propan-2-ol] | 38.8 nM
18 | O=S(=O)(c1cccc(OC[C@@H](O)CNC2COC3(CCN(S(=O)(=O)c4ccc5ccccc5c4)CC3)C2)c1)C1CCC1 (stereo partly drawn) [Compound 18, (2S)-1-(3-(cyclobutylsulfonyl)phenoxy)-3-(8-(naphthalen-2-ylsulfonyl)-1-oxa-8-azaspiro[4.5]decan-3-ylamino)propan-2-ol] | 48.9 nM
19 | O=S(=O)(c1cccc(OC[C@@H](O)CNC2COC3(CCN(S(=O)(=O)c4ccc5ccccc5c4)CC3)C2)c1)C1CCCC1 (stereo partly drawn) [Compound 19, (2S)-1-(3-(cyclopentylsulfonyl)phenoxy)-3-(8-(naphthalen-2-ylsulfonyl)-1-oxa-8-azaspiro[4.5]decan-3-ylamino)propan-2-ol] | 66.7 nM
20 | O=S(=O)(Cc1ccccc1)c1cccc(OC[C@@H](O)CNC2COC3(CCN(S(=O)(=O)c4ccc5ccccc5c4)CC3)C2)c1 (stereo partly drawn) [Compound 20, (2S)-1-(3-(benzylsulfonyl)phenoxy)-3-(8-(naphthalen-2-ylsulfonyl)-1-oxa-8-azaspiro[4.5]decan-3-ylamino)propan-2-ol] | 76.2 nM
21 | O=S(=O)(c1cccc(OC[C@@H](O)CNC2COC3(CCN(S(=O)(=O)c4ccc5ccccc5c4)CC3)C2)c1)C1CNC1 (stereo partly drawn) [Compound 21, (2S)-1-(3-(azetidin-3-ylsulfonyl)phenoxy)-3-(8-(naphthalen-2-ylsulfonyl)-1-oxa-8-azaspiro[4.5]decan-3-ylamino)propan-2-ol] | 252 nM
22 | NCCS(=O)(=O)c1cccc(OC[C@@H](O)CNC2COC3(CCN(S(=O)(=O)c4ccc5ccccc5c4)CC3)C2)c1 (stereo partly drawn) [Compound 22, (2S)-1-(3-(2-aminoethylsulfonyl)phenoxy)-3-(8-(naphthalen-2-ylsulfonyl)-1-oxa-8-azaspiro[4.5]decan-3-ylamino)propan-2-ol] | 302 nM
23 | CS(=O)(=O)c1cccc(OC[C@H](O)CN[C@H]2COC3(CCN(S(=O)(=O)c4ccc5ccccc5c4)CC3)C2)c1 [Compound 23, (R)-1-(3-(methylsulfonyl)phenoxy)-3-((R)-8-(naphthalen-2-ylsulfonyl)-1-oxa-8-azaspiro[4.5]decan-3-ylamino)propan-2-ol] | 242 nM
24 | O=S(=O)(c1cccc(OC[C@@H](O)CNC2COC3(CCN(S(=O)(=O)c4ccc5ccccc5c4)CC3)C2)c1)C1COC1 (stereo partly drawn) [Compound 24, (2S)-1-(8-(naphthalen-2-ylsulfonyl)-1-oxa-8-azaspiro[4.5]decan-3-ylamino)-3-(3-(oxetan-3-ylsulfonyl)phenoxy)propan-2-ol] | 23.6 nM
25 | CCC(C)S(=O)(=O)c1cccc(OC[C@@H](O)CNC2COC3(CCN(S(=O)(=O)c4ccc5ccccc5c4)CC3)C2)c1 (stereo partly drawn) [Compound 25, (2S)-1-(3-(sec-butylsulfonyl)phenoxy)-3-(8-(naphthalen-2-ylsulfonyl)-1-oxa-8-azaspiro[4.5]decan-3-ylamino)propan-2-ol] | 54.6 nM
26 | CCS(=O)(=O)c1cccc(OC[C@@H](O)CN[C@H]2COC3(CCN(S(=O)(=O)c4ccc5ccccc5c4)CC3)C2)c1 [Compound 26, (S)-1-(3-(ethylsulfonyl)phenoxy)-3-((R)-8-(naphthalen-2-ylsulfonyl)-1-oxa-8-azaspiro[4.5]decan-3-ylamino)propan-2-ol] | 5.25 nM

From US10927123B2, “Modulators of the beta-3 adrenergic receptor useful for the treatment or prevention of disorders related thereto” (Arena Pharmaceuticals, Inc., priority 2016, dated 2021)
